Data on eleven compounds can be found in US10647713B2 (Nimbus Lakshmi, Inc., priority 2016, dated 2020).

Each structure is given as a SMILES string.

human TYK2 (JH2domain-pseudokinase), sequence (P29597 556-888): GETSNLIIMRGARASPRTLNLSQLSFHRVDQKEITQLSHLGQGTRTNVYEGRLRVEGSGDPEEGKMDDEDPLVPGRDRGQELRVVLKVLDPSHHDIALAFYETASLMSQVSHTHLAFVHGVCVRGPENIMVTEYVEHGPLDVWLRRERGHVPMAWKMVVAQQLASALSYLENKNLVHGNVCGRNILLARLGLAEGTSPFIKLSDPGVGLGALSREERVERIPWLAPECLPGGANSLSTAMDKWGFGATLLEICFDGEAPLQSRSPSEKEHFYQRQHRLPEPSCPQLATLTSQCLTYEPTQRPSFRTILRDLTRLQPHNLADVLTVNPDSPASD

The assay has as its target human TYK2 (JH2domain-pseudokinase) (Homo sapiens (Human), UniProt P29597). Nature of the assay: TYK2 JH2 Domain Binding Assay (KINOMEscan, DiscoveRx). Conditions: 11-point dilution, duplicate. The method, boiled down:
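TYK2 JH2 (G556–D888)–NFkB DBD fusion, DNA-tagged, from HEK293 extracts (<0.1 nM) competed against immobilised biotinylated ligand for 1 h at room temperature, 0.9% DMSO. Bead-retained kinase quantified by qPCR; Kd from 11-point 3-fold series (top 30,000 nM, duplicate), Hill fit with slope −1.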
`[2H]C([2H])([2H])N(c1ccccc1Nc1cc(Nc2cc(C)nc(C)n2)nc2[nH]c(C)nc12)S(C)(=O)=O` [I-201, N-(2-((5-((2,6-dimethylpyrimidin-4-yl)amino)-2-methyl-3H-imidazo[4,5-b]pyridin-7-yl)amino)phenyl)-N-(methyl-d3)methanesulfonamide] had a Kd of 0.1 to 0.5 nM.
With `CN(c1cc(C(F)F)ccc1Nc1cc(Nc2ccn(C)n2)nc2[nH]c(C(F)F)nc12)S(C)(=O)=O` [I-202, N-(5-(difluoromethyl)-2-((2-(difluoromethyl)-5-((1-methyl-1H-pyrazol-3-yl)amino)-3H-imidazo[4,5-b]pyridin-7-yl)amino)phenyl)-N-methylmethanesulfonamide], the Kd is 0.5 to 1 nM.
In turn, `CS(=O)(=O)c1cc(C2CC2)ccc1Nc1cc(NC(=O)C2CC2)nc2[nH]c(C(F)F)nc12` [I-203] had a Kd of 0.1 to 0.5 nM.
The result for `COc1c(Nc2cc(Nc3cnc(C(C)(C)OC)c(C#N)n3)nc3[nH]c(C)nc23)cccc1-c1nnn(C)n1` [I-204, 6-((7-((2-methoxy-3-(2-methyl-2H-tetrazol-5-yl)phenyl)amino)-2-methyl-3H-imidazo[4,5-b]pyridin-5-yl)amino)-3-(2-methoxypropan-2-yl)pyrazine-2-carbonitrile] reads 0.5 to 1 nM; that for `CS(=O)(=O)c1cc(Cl)ccc1Nc1cc(NC(=O)[C@H]2C[C@H]2F)nc2[nH]c(C(F)F)nc12` [I-205], 0.5 to 1 nM.
`COc1c(Nc2cc(Nc3cc(C(F)(F)F)n(C)n3)nc3[nH]c(C(F)F)nc23)cccc1-c1ncn(C)n1` [I-206, 2-(difluoromethyl)-N7-(2-methoxy-3-(1-methyl-1H-1,2,4-triazol-3-yl)phenyl)-N5-(1-methyl-5-(trifluoromethyl)-1H-pyrazol-3-yl)-3H-imidazo[4,5-b]pyridine-5,7-diamine] yielded a dissociation constant (Kd) of 1 to 10 nM.
The result for `Cc1nc2c(Nc3ccc(-c4cncn4C)cc3N(C)S(C)(=O)=O)cc(NC(=O)[C@@H]3C[C@@H]3F)nc2[nH]1` [I-208, (1S,2S)-2-fluoro-N-(2-methyl-7-((4-(1-methyl-1H-imidazol-5-yl)-2-(N-methylmethylsulfonamido)phenyl)amino)-3H-imidazo[4,5-b]pyridin-5-yl)cyclopropane-1-carboxamide] reads 1 to 10 nM; that for `Cc1nc2c(Nc3ccc(-c4cnn(C)c4)cc3N(C)S(C)(=O)=O)cc(NC(=O)[C@@H]3C[C@@H]3F)nc2[nH]1` [I-209, (1S,2S)-2-fluoro-N-(2-methyl-7-((4-(1-methyl-1H-pyrazol-4-yl)-2-(N-methylmethylsulfonamido)phenyl)amino)-3H-imidazo[4,5-b]pyridin-5-yl)cyclopropane-1-carboxamide], 0.1 to 0.5 nM; that for `Cn1ccc(-c2ccc(Nc3cc(NC(=O)[C@@H]4C[C@@H]4F)nc4[nH]c(C(F)F)nc34)c(S(C)(=O)=O)c2)n1` [I-210, (1S,2S)—N-(2-(difluoromethyl)-7-((4-(1-methyl-1H-pyrazol-3-yl)-2-(methylsulfonyl)phenyl)amino)-3H-imidazo[4,5-b]pyridin-5-yl)-2-fluorocyclopropane-1-carboxamide], 0.1 to 0.5 nM.
Turning to `Cc1nc2c(Nc3ccc(-c4ccn(C)n4)cc3S(C)(=O)=O)cc(NC(=O)[C@@H]3C[C@@H]3F)nc2[nH]1` [I-211, (1S,2S)-2-fluoro-N-(2-methyl-7-((4-(1-methyl-1H-pyrazol-3-yl)-2-(methylsulfonyl)phenyl)amino)-3H-imidazo[4,5-b]pyridin-5-yl)cyclopropane-1-carboxamide], the equilibrium dissociation constant (Kd) lay within 0.1 to 0.5 nM.
As for `Cn1cncc1-c1ccc(Nc2cc(NC(=O)C3CC3)nc3[nH]c(C(F)F)nc23)c(S(C)(=O)=O)c1` [I-214, N-(2-(difluoromethyl)-7-((4-(1-methyl-1H-imidazol-5-yl)-2-(methylsulfonyl)phenyl)amino)-3H-imidazo[4,5-b]pyridin-5-yl)cyclopropanecarboxamide], the Kd is less than 0.1 nM.
